Measured values: US20220226479A1, “CELL LAYER PERMEATION PROMOTER. COMPOSITION FOR FACILITATING DRUG ABSORPTION. AND PHARMACEUTICAL COMPOSITION” (University of Tsukuba, priority 2019, published 2022)
Entries after “also recorded” stand apart in the source; their conditions may differ. Where a SMILES comes first, the peptide text is derived from it. Bridges are numbered along the chain shown (N, C = ends). [ ]: non-standard residue; d: D form. The star is where a group is joined. ξ: configuration not given here. Decanoyl(3ξ-OH) = CCCCCCCC(O)CC(=O)*; Decanoyl = CCCCCCCCCC(=O)*

Tested on: MDCK II cells
Assay: Permeation evaluation test with FD4 marker (dextran, molecular weight 4000) across a model epithelial cell layer in a transwell
Format: cell-based, dog
Settings: for cell-layer-permeation-promoting effect (permeation of FD4, result in words): 0.003 mM in 1 v/v % DMSO, FIG. 1-4; for increase/accumulation in the amount permeating the receiver solution, late period / reversibility of the permeation-accelerating effect: 0.003 mM; for increase/accumulation in the amount permeating the receiver solution, late period: period from two hours to five hours after the start of testing, test example 1; for reversibility of the permeation-accelerating effect: recovery of tight junctions and other cell bonding structures; for increase in the amount of FD4 permeating the receiver solution with respect to the negative control (factor): test substance 0.003 mM in 1 v/v % DMSO, two hours after the start of testing, test example 1, FIG. 1; for cell-layer-permeation-promoting effect compared with cu538-2: both at 0.003 mM, test examples 2-4, FIG. 2-4
Procedure: MDCK II cells derived from dog kidney epithelial cells were used to create a model of an epithelial cell layer in which a transwell was used, and a test to evaluate permeation by substances was conducted. Specifically, MDCK II cells in a logarithmic growth phase were sowed in a transwell (diameter: 6.5 mm, collagen coat, pore size: 0.4 μm) (trade name “Corning Transwell 3495,” made by Corning Co., Ltd.) at a cell count of 3.4 to 4.0×10^4 cells, a 24-hole well plate was used as basal-side wells, and 600 μL of a cell growth medium was introduced into each of apical-side wells and the basal-side wells. The medium was replaced daily to form a layer, and three days after sowing the medium was replaced with a Hank's balanced salt solution (HESS) for measurement. After incubation for one hour at 37° C., layer formation was confirmed by measuring the transepithelial electrical resistance (TEER) using a resistance value measurement system (trade name “Millicell-ERS,” made by Millipore Corp.). After layer formation was confirmed, the apical-side medium was replaced by 100 μL of HESS to which a marker substance (FD4: […]) (made by Sigma KK) having a molecular weight of 4000 was added so as to reach a concentration of 1.0 w/v %, and test substances were added so as to reach the final concentrations indicated below. The transwell was shifted, at intervals of 30 minutes until five hours after addition of the marker substance, to the basal-side wells into which the new HESS entered, and the HESS in the remaining basal-side wells (referred to as a “receiver solution” below) was retrieved 50 μL at a time per well in a 96-hole well plate. The fluorescence intensity of the retrieved HESS at an excitation wavelength of 485 nm and a fluorescence wavelength of 528 nm was measured using a fluorescent plate reader (trade name “Wallac 1420 ARVO MX,” made by Perkin Elmer Corp.).
A test to evaluate permeation by substances was conducted in the same manner as in test example 1, except that the test substances were as indicated below.

SMILES | cell-layer-permeation-promoting effect (permeation of FD4, result in words) | increase/accumulation in the amount permeating the receiver solution, late period | reversibility of the permeation-accelerating effect | increase in the amount of FD4 permeating the receiver solution with respect to the negative control (factor) | amount of marker substance permeating the receiver solution over time (positive control) (0.0001 mM in 1 v/v % DMSO, over five hours after the start of testing) | cell-layer-permeation-promoting effect compared with cu538-2
CCCCCCC[C@H](O)CC(=O)N[C@@H](CC(C)C)C(=O)N[C@H](CCC(=O)O)C(=O)N[C@H](CCC(N)=O)C(=O)N[C@@H](C(=O)N[C@H](CC(C)C)C(=O)N[C@@H](CCC(N)=O)C(=O)N[C@@H]1COC(=O)[C@H]([C@@H](C)CC)NC(=O)[C@@H](CCC(N)=O)NC(=O)[C@H](CC(C)C)NC(=O)[C@H](CC(C)C)NC(=O)[C@@H](CCC(N)=O)NC(=O)[C@@H](CC(C)C)NC(=O)[C@@H](C(C)C)NC1=O)C(C)C (single isomer, unassigned) [cu538-1] | accelerated permeation of substances in the paracellular pathway | substantially no increase/accumulation | reversible | four |  | 
C/C1=C/C(=O)O[C@@H]2C[C@@H](CC[C@H](C)/C=C\C=C\CC1)O[C@@](O)([C@@H]1CSC(=O)N1)C2 [Latrunclin A, reference compound] |  |  |  |  | continuous increase/accumulation | 
CCCCCCCCCC(=O)N[C@@H](CC(C)C)C(=O)N[C@H](CCC(=O)O)C(=O)N[C@H](CCC(N)=O)C(=O)N[C@@H](C(=O)N[C@H](CC(C)C)C(=O)N[C@@H](CCC(N)=O)C(=O)N[C@@H]1COC(=O)[C@H]([C@@H](C)CC)NC(=O)[C@@H](CCC(N)=O)NC(=O)[C@H](CC(C)C)NC(=O)[C@H](CC(C)C)NC(=O)[C@@H](CCC(N)=O)NC(=O)[C@@H](CC(C)C)NC(=O)[C@@H](C(C)C)NC1=O)C(C)C [NY-38] (Decanoyl-L[dE][dQ][dV][dL]Q[dS][dV][dL][dQ]LL[dQ]I; ester 7-C) | accelerated permeation of substances in the paracellular pathway; also recorded: cell-layer-permeation-promoting effect was found |  | reversible |  |  | more remarkable
CCCCCCC[C@@H](O)CC(=O)N[C@@H](CC(C)C)C(=O)N[C@H](CCC(=O)O)C(=O)N[C@H](CCC(N)=O)C(=O)N[C@@H](C(=O)N[C@H](CC(C)C)C(=O)N[C@@H](CCC(N)=O)C(=O)N[C@@H]1COC(=O)[C@H]([C@@H](C)CC)NC(=O)[C@@H](CCC(N)=O)NC(=O)[C@H](CC(C)C)NC(=O)[C@H](CC(C)C)NC(=O)[C@@H](CCC(N)=O)NC(=O)[C@@H](CC(C)C)NC(=O)[C@@H](C(C)C)NC1=O)C(C)C [cu538-2] | accelerated permeation of substances in the paracellular pathway | substantially no increase/accumulation | reversible | eight |  | 
CCCCCCCC(O)CC(=O)N[C@@H](CC(C)C)C(=O)N[C@H](CCC(=O)O)C(=O)N[C@H](CCC(N)=O)C(=O)N[C@@H](C(=O)N[C@H](CC(C)C)C(=O)N[C@@H](C)C(=O)N[C@@H]1COC(=O)[C@H]([C@@H](C)CC)NC(=O)[C@@H](CCC(N)=O)NC(=O)[C@H](CC(C)C)NC(=O)[C@H](CC(C)C)NC(=O)[C@@H](CCC(N)=O)NC(=O)[C@@H](CC(C)C)NC(=O)[C@@H](C(C)C)NC1=O)C(C)C (stereo partly drawn) [cu592] ({Decanoyl(3ξ-OH)}-L[dE][dQ][dV][dL]A[dS][dV][dL][dQ]LL[dQ]I; ester 7-C) |  |  |  |  |  | equivalent
CCCCCCCC(O)CC(=O)N[C@@H](CC(C)C)C(=O)N[C@H](CCC(=O)O)C(=O)N[C@H](CCC(N)=O)C(=O)N[C@@H](C(=O)N[C@H](CC(C)C)C(=O)N[C@@H](CCC(N)=O)C(=O)N[C@@H]1COC(=O)[C@H]([C@@H](C)CC)NC(=O)[C@@H](CCC(N)=O)NC(=O)[C@H](CC(C)C)NC(=O)[C@H](CC(C)C)NC(=O)[C@@H](C)NC(=O)[C@@H](CC(C)C)NC(=O)[C@@H](C(C)C)NC1=O)C(C)C (stereo partly drawn) [cu605] ({Decanoyl(3ξ-OH)}-L[dE][dQ][dV][dL]Q[dS][dV][dL][dA]LL[dQ]I; ester 7-C) | found to have an effect |  |  |  |  | 
CCCCCCCC(O)CC(=O)N[C@@H](CC(C)C)C(=O)N[C@H](CCC(=O)O)C(=O)N[C@H](CCC(N)=O)C(=O)N[C@@H](C(=O)N[C@H](CC(C)C)C(=O)N[C@@H](CCC(N)=O)C(=O)N[C@@H]1COC(=O)[C@H]([C@@H](C)CC)NC(=O)[C@@H](C)NC(=O)[C@H](CC(C)C)NC(=O)[C@H](CC(C)C)NC(=O)[C@@H](CCC(N)=O)NC(=O)[C@@H](CC(C)C)NC(=O)[C@@H](C(C)C)NC1=O)C(C)C (stereo partly drawn) [cu619] ({Decanoyl(3ξ-OH)}-L[dE][dQ][dV][dL]Q[dS][dV][dL][dQ]LL[dA]I; ester 7-C) | found to have an effect |  |  |  |  | more remarkable
